We go through three compounds from article PMC11189516, “Structure-guided conversion from an anaplastic lymphoma kinase inhibitor into Plasmodium lysyl-tRNA synthetase selective inhibitors” (Communications Biology, 2024).

Assay [1] has as its target T1, PfLysRS (Plasmodium falciparum, UniProt Q8IDJ8).
T1 construct: PfLysRS (77–583) was constructed in the vector pET20b, with a C-terminal 6×His tag; 6xHis (C); made in house; host or cells: E. coli BL21 (DE3)
Put plainly: ATP hydrolysis assay (Kinase-Glo) on PfLysRS. Format: biochemical. The note with it: read-out: IC50 against PfLysRS. As to the method: The ATP hydrolysis assays were based on Kinase-Glo luminescent Kit (Promega). The experiment was carried out in Corning 384-well white flat bottom microplates. The buffer in the reaction contains 25 mM Hepes pH 7.4, 140 mM NaCl, 40 mM MgCl2, 30 mM KCl, 1 mM TCEP, 0.1 mg·mL^−1 BSA, and 0.004% Tween-20. The compounds were diluted to different concentrations with a 5-fold gradient.
For LysRS assays, DMSO was added into negative control wells and L-lysine was removed in positive control wells. 100 nM LysRS in 2.5 μL Hepes buffer was mixed with compounds and incubated for 10 min. Then 5 μL substrate mixture (2 μM ATP, 10 μM L-lysine and 31 nM pyrophosphatase) was added to start the reaction at 37 °C and incubated for 6 h.
When the reaction reaches the planned time, 10 μL diluted Kinase-Glo reagent (1/50 diluted with a buffer containing 50 mM Tris pH 7.5 and 5% glycerol) was added and incubated for 15 min. Luminescence was measured on the Magellan plate reader (Tecan) and nonlinear regression was performed with Prism (GraphPad).

Assay [2] relates to erythrocytic-stage P. falciparum 3D7 parasites. The arrangement: method as in PMID 33053158. The note with it: read-out: EC50, growth of erythrocytic-stage P. falciparum 3D7; cited from earlier work.
The target of assay [3] is T1, PfLysRS. Conditions: cited from earlier work.
The target in assay [4] is P. falciparum ProRS. Conditions: sentence of the first manuscript quoted in the peer review file; read-out: dissociation constant (KD); cited from earlier work.
The subject of assay [5] is Staphylococcus aureus. The arrangement: method as in PMID 6258580, PMID 659331, PMID 3923922. Conditions: cited from earlier work.

In brackets after ≈: the same amount, converted by molar mass. Where two headings read alike, the source gives them in different places.

T1 sequence (Q8IDJ8 entry or part of it): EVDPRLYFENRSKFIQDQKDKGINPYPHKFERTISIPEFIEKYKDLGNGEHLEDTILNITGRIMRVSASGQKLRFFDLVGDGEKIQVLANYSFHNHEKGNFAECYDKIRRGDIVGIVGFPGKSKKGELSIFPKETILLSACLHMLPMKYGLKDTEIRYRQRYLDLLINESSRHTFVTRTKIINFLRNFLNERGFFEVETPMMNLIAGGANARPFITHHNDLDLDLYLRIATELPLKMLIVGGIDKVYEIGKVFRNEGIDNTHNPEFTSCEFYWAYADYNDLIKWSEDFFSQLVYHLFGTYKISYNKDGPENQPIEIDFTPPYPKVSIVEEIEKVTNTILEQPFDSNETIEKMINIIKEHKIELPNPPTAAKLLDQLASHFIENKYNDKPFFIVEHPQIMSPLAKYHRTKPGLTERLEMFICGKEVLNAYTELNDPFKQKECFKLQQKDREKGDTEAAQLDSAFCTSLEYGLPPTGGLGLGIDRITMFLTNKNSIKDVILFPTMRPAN

The IC50 is the concentration that inhibits the measured activity by half. As a reminder, the EC50 is the concentration that produces a half-maximal response. Turning to `COc1cc(N2CCC(N3CCN(C)CC3)CC2)ccc1Nc1ncnc(Nc2ccccc2S(=O)(=O)C(C)C)n1` [ASP3026, N-{2-Methoxy-4-[4-(4-methylpiperazin-1-yl)piperidin-1-yl]phenyl}-N’-[2-(propane-2-sulfonyl)phenyl]-1,3,5-triazine-2,4-diamine], the half-inhibitory concentration (IC50) is 967 ± 170 nM in assay [1] and 657 ± 195 nM in assay [3] (another kit, different buffer system, ref nucleic acid research paper, read-out: previously reported IC50 against PfLysRS). Further, the half-maximal effective concentration (EC50) in assay [2] is 5.61 µM. For the same compound, in assay [3] (ref original Nucleic Acid Research paper), the “inhibitory effect on human ALK stronger than on PfLysRS” value is “about 200 times”.

A word on the Kd: it is the equilibrium constant for the complex coming apart. As to `O=C(CC1NCCCC1O)Cn1cnc2cc(Br)c(Cl)cc2c1=O` (stereo not drawn) [Halofuginone], in assay [4], the Kd is 19 nM.

As usually defined, the MIC is the smallest concentration in the dilution series that meets the test's criterion for growth inhibition. Take `C/C(=C\C(=O)OCCCCCCCCC(=O)O)C[C@@H]1OC[C@H](C[C@@H]2O[C@H]2[C@@H](C)[C@H](C)O)[C@@H](O)[C@H]1O` [Mupirocin]: the minimum inhibitory concentration (MIC) in assay [5] was 0.05 µg/mL (≈ 0.0999 µM).
